From US11623919B2, “Heterocyclic P2X7 antagonists” (AXXAM S.P.A., priority 2017, dated 2023)

Key:
Test in all cases: Screen Quest Fluo-8 No Wash Calcium Assay (Bz-ATP evoked Ca2+ influx, FLIPR)
Assay type in all cases: cell-based
P2X7 receptor [1] = target: T1, P2X7 receptor (Homo sapiens, UniProt Q99572); parameters: hP2X7 (IC50; nM); other: hP2X7; HEK-293 cells stably transfected with P2X7 receptor, Bz-ATP at EC80, Fluo-8 NW; potency; conditions: hP2X7; HEK-293 cells stably transfected with P2X7 receptor, Bz-ATP at EC80, Fluo-8 NW; potency ranges A-D
T1 sequence (Q99572 1-595): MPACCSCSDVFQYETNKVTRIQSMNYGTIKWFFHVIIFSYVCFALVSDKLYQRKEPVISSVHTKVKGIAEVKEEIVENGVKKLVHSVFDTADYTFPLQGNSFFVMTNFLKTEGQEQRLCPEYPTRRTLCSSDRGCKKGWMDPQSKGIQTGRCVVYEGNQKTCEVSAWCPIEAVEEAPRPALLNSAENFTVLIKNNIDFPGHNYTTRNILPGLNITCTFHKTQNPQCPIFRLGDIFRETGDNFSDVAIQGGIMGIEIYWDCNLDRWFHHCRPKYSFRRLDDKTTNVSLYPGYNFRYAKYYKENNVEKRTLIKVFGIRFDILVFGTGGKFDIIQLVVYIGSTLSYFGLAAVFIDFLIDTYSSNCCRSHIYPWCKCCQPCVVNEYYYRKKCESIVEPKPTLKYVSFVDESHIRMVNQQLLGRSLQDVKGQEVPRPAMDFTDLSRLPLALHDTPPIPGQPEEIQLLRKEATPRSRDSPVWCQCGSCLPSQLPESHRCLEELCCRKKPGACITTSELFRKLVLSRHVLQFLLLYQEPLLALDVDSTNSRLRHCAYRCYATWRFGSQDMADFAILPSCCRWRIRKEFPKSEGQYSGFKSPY
Protocol: (§1) Extracellular binding of Bz-ATP to P2X7 receptor opens the channel and allows Ca2+ influx into the cells. […] Once inside the cell, the lipophilic blocking groups of Fluo-8 are cleaved by non-specific cell esterases, resulting in a negatively-charged fluorescent dye that stays inside cells. Its fluorescence increases upon binding to calcium.
(§2) HEK-293 cells stably transfected with P2X7 receptor were seeded overnight in growth medium at 10,000 to 20,000 cell/well in 384-well plate. 24 hours later, the medium was removed and the cells were pre-loaded at RT for 1 hour with 20 μL/w of Fluo-8 NW. Then 10 μL/w of tests compounds and reference antagonist A438079 at 3×-concentration were injected with the […] and the kinetic response over a period of five minutes was monitored. A second injection of 15 μL/w of 3× reference activator (Bz-ATP at EC80) was performed with the […] and the signal of the emitted fluorescence was recorded for additional three minutes. All the experiment was carried out in a Low Divalent Cation Assay Buffer (0.3 mM Ca^2+ and 0 mM Mg^2+). The effect of the test compounds was measured as percent inhibition vs the reference antagonist and IC50 values were calculated accordingly.

P2X7 receptor [2] = target: T2, P2X7 receptor (Rattus norvegicus, UniProt Q64663); conditions: rP2X7; HEK-293 cells stably transfected with P2X7 receptor, Bz-ATP at EC80, Fluo-8 NW; potency ranges A-D
T2 construct: rP2X7 (IC50; nM); other: rP2X7; HEK-293 cells stably transfected with P2X7 receptor, Bz-ATP at EC80, Fluo-8 NW; potency
T2 sequence (Q64663 1-595): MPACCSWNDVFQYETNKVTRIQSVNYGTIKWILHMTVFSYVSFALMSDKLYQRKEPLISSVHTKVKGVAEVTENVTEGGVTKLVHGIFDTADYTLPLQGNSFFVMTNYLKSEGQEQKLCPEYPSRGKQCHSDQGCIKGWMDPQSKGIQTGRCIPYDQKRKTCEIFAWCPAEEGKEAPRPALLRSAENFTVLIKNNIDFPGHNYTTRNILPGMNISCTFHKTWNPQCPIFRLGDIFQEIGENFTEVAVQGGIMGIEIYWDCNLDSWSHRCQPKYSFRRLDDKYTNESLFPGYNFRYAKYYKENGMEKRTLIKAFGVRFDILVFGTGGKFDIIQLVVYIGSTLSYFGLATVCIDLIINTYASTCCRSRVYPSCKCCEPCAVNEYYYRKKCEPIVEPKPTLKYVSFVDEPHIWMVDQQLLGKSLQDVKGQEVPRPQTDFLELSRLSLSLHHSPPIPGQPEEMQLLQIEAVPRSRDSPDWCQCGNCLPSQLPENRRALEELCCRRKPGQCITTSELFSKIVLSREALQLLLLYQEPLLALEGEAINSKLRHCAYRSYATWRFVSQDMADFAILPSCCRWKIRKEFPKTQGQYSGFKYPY
Protocol: as §1, §2

P2X7 receptor [3] = target: T3, P2X7 receptor (Mus musculus, UniProt Q9Z1M0); conditions: mP2X7; HEK-293 cells stably transfected with P2X7 receptor, Bz-ATP at EC80, Fluo-8 NW; potency ranges A-D
T3 construct: mP2X7 (IC50; nM); other: mP2X7; HEK-293 cells stably transfected with P2X7 receptor, Bz-ATP at EC80, Fluo-8 NW; potency
T3 sequence (Q9Z1M0 1-595): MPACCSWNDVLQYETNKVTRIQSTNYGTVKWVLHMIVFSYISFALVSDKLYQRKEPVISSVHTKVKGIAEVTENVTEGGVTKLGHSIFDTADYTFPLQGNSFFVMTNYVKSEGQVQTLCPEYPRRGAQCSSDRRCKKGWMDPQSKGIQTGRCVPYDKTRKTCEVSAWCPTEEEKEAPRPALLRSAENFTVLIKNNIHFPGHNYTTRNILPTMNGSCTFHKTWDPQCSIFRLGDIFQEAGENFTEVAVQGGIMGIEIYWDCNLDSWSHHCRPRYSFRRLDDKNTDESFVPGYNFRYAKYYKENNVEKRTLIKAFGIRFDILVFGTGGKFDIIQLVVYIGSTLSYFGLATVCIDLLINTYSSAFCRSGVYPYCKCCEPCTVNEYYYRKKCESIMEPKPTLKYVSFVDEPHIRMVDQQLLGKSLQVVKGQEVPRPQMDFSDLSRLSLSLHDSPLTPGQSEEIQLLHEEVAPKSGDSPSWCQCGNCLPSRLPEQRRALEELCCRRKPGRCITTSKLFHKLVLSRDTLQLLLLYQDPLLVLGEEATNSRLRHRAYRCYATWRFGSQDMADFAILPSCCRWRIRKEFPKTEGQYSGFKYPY
Protocol: as §1, §2

Row | Structure (SMILES) | IC50 (P2X7 receptor [1]) [nM] | IC50 (P2X7 receptor [2]) [nM] | IC50 (P2X7 receptor [3]) [nM]
1 | O=c1onc(Cc2c(F)cccc2Cl)n1Cc1ccccc1 [Example 21, 4-benzyl-3-[(2-chloro-6-fluorophenyl)methyl]-4,5-dihydro-1,2,4-oxadiazol-5-one] | 200 to 1000 | 1000 to 10000 | 1000 to 10000
2 | O=c1onc(Cc2c(F)cccc2Cl)n1Cc1ccccc1Cl [Example 22, 3-[(2-chloro-6-fluorophenyl)methyl]-4-[(2-chlorophenyl)methyl]-4,5-dihydro-1,2,4-oxadiazol-5-one] | 1000 to 10000 | 1000 to 10000 | 1000 to 10000
3 | O=c1onc(Cc2c(F)cccc2Cl)n1Cc1ccccc1C(F)(F)F [Example 23, 3-[(2-chloro-6-fluorophenyl)methyl]-4-{[2-(trifluoromethyl)phenyl]methyl}-4,5-dihydro-1,2,4-oxadiazol-5-one] | 1000 to 10000 | 1000 to 10000 | > 10000
4 | Cc1ncccc1Cn1c(Cc2c(F)cccc2Cl)noc1=O [Example 24, 3-[(2-chloro-6-fluorophenyl)methyl]-4-[(2-methylpyridin-3-yl)methyl]-4,5-dihydro-1,2,4-oxadiazol-5-one] | > 10000 | > 10000 | 1000 to 10000
5 | Cc1ccccc1Cn1c(Cc2c(F)cccc2Cl)noc1=O [Example 27, 3-[(2-chloro-6-fluorophenyl)methyl]-4-[(2-methylphenyl)methyl]-4,5-dihydro-1,2,4-oxadiazol-5-one] | 1000 to 10000 | 1000 to 10000 | 1000 to 10000
6 | COc1ccccc1Cn1c(Cc2c(F)cccc2Cl)noc1=O [Example 28, 3-[(2-chloro-6-fluorophenyl)methyl]-4-[(2-methoxyphenyl)methyl]-4,5-dihydro-1,2,4-oxadiazol-5-one] | 1000 to 10000 | > 10000 | 1000 to 10000
7 | O=c1onc(Cc2c(F)cccc2Cl)n1Cc1cccc2ccccc12 [Example 29, 3-[(2-chloro-6-fluorophenyl)methyl]-4-(naphthalen-1-ylmethyl)-4,5-dihydro-1,2,4-oxadiazol-5-one] | 1000 to 10000 | > 10000 | 1000 to 10000
8 | O=c1onc(Cc2c(F)cccc2Cl)n1Cc1cccc2ncccc12 [Example 30, 3-[(2-chloro-6-fluorophenyl)methyl]-4-(quinolin-5-ylmethyl)-4,5-dihydro-1,2,4-oxadiazol-5-one] | 1000 to 10000 | 1000 to 10000 | 1000 to 10000
9 | Cc1ncsc1Cn1c(Cc2c(F)cccc2Cl)noc1=O [Example 31, 3-[(2-chloro-6-fluorophenyl)methyl]-4-[(4-methyl-1,3-thiazol-5-yl)methyl]-4,5-dihydro-1,2,4-oxadiazol-5-one] | 1000 to 10000 | > 10000 | > 10000
10 | O=c1onc(Cc2c(F)cccc2Cl)n1Cc1ncco1 [Example 32, 3-[(2-chloro-6-fluorophenyl)methyl]-4-(1,3-oxazol-2-ylmethyl)-4,5-dihydro-1,2,4-oxadiazol-5-one] | > 10000 | > 10000 | > 10000
11 | O=c1onc(Cc2c(F)cccc2Cl)n1Cc1cncs1 [Example 33, 3-[(2-chloro-6-fluorophenyl)methyl]-4-(1,3-thiazol-5-ylmethyl)-4,5-dihydro-1,2,4-oxadiazol-5-one] | > 10000 | > 10000 | > 10000
12 | O=c1onc(Cc2c(F)cccc2Cl)n1Cc1nccs1 [Example 34, 3-[(2-chloro-6-fluorophenyl)methyl]-4-(1,3-thiazol-2-ylmethyl)-4,5-dihydro-1,2,4-oxadiazol-5-one] | > 10000 | > 10000 | > 10000
13 | O=c1onc(Cc2c(F)cccc2Cl)n1Cn1ccc(C(F)(F)F)n1 [Example 35, 3-[(2-chloro-6-fluorophenyl)methyl]-4-{[3-(trifluoromethyl)-1H-pyrazol-1-yl]methyl}-4,5-dihydro-1,2,4-oxadiazol-5-one] | 1000 to 10000 | 1000 to 10000 | 1000 to 10000
14 | Cc1noc(C)c1Cn1c(Cc2c(F)cccc2Cl)noc1=O [Example 36, 3-[(2-chloro-6-fluorophenyl)methyl]-4-[(dimethyl-1,2-oxazol-4-yl)methyl]-4,5-dihydro-1,2,4-oxadiazol-5-one] | 1000 to 10000 | > 10000 | > 10000
15 | O=c1onc(Cc2c(F)cccc2Cl)n1Cc1ccc(C(F)(F)F)nc1 [Example 37, 3-[(2-chloro-6-fluorophenyl)methyl]-4-{[6-(trifluoromethyl)pyridin-3-yl]methyl}-4,5-dihydro-1,2,4-oxadiazol-5-one] | 1000 to 10000 | > 10000 | 1000 to 10000
16 | O=c1onc(Cc2c(F)cccc2Cl)n1Cc1cncnc1 [Example 38, 3-[(2-chloro-6-fluorophenyl)methyl]-4-(pyrimidin-5-ylmethyl)-4,5-dihydro-1,2,4-oxadiazol-5-one] | > 10000 | > 10000 | > 10000
17 | O=c1onc(Cc2c(F)cccc2Cl)n1Cc1ncccn1 [Example 39, 3-[(2-chloro-6-fluorophenyl)methyl]-4-(pyrimidin-2-ylmethyl)-4,5-dihydro-1,2,4-oxadiazol-5-one] | > 10000 | > 10000 | > 10000
18 | O=c1onc(Cc2c(F)cccc2Cl)n1Cc1cnco1 [Example 40, 3-[(2-chloro-6-fluorophenyl)methyl]-4-(1,3-oxazol-5-ylmethyl)-4,5-dihydro-1,2,4-oxadiazol-5-one] | > 10000 | > 10000 | > 10000
19 | Cc1nnc(Cn2c(Cc3c(F)cccc3Cl)noc2=O)o1 [Example 41, 3-[(2-chloro-6-fluorophenyl)methyl]-4-[(5-methyl-1,3,4-oxadiazol-2-yl)methyl]-4,5-dihydro-1,2,4-oxadiazol-5-one] | > 10000 | > 10000 | > 10000
